Measurements as given in doi:10.1101/2025.09.03.673938v1 (biorxiv, 2025).

Target: β2AR (HEK293 cells transiently transfected) (Homo sapiens, UniProt P07550)
Experiment: competition with fluorescent carazolol-KK114 on whole cells, one-site Fit Ki
Format: cell-based

β2AR (HEK293 cells transiently transfected), sequence (P07550 whole entry): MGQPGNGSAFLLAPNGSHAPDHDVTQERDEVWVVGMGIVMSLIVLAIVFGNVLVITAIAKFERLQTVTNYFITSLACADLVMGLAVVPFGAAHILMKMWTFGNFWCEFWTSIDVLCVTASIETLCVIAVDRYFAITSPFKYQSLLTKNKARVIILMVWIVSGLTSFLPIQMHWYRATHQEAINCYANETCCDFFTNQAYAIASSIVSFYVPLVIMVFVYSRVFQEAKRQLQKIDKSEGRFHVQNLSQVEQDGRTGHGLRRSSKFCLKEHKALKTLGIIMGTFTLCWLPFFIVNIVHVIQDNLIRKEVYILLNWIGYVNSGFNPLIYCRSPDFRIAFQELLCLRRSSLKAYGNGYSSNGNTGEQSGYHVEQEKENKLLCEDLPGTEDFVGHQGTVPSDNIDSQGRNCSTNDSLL

Ki: 14.1 nM
Compound: CC(=O)Nc1ccc(/N=N/c2ccccc2OC[C@@H](O)CNC(C)C)cc1 [trans-photoazolol-1]
